Values of other authors as cited in patent US11504321B2, “Process of coloring keratinous material comprising the use of an organosilicon compound, an effect pigment, a further coloring compound and a film-forming polymer II” (Henkel AG & Co. KGaA, priority 2019, dated 2022).

Details: for solubility in water: 25° C.

Compound | solubility in water | solubility in water (in words) (at 25° C.)
CCN(Cc1cccc(S(=O)(=O)[O-])c1)c1ccc(C(=C2C=CC(=[N+](CC)Cc3cccc(S(=O)(=O)[O-])c3)C=C2)c2ccccc2S(=O)(=O)[O-])cc1.[Na+].[Na+] [Acid Blue 9] | more than 20 % by weight | 
Nc1cc(S(=O)(=O)[O-])cc2cc(S(=O)(=O)[O-])c(N=Nc3ccccc3)c(O)c12.[Na+].[Na+] [Acid Red 33, disodium salt of 5-amino-4-hydroxy-3-(phenylazo)-naphthalene-2,7-disulphonate] | 2500 µg/mL | 
O=S(=O)([O-])c1ccc(N=Nc2c(O)ccc3ccccc23)cc1.[Na+] [Acid Orange 7, sodium salt of 4-[(2-hydroxy-1-naphthyl)azo]benzene sulphonate] | more than 7 g/L | 
O=C([O-])C1=NN(c2ccc(S(=O)(=O)[O-])cc2)C(=O)C1N=Nc1ccc(S(=O)(=O)[O-])cc1.[Na+].[Na+].[Na+] (centres unmarked) [Acid Yellow 23, trisodium salt of 4,5-dihydro-5-oxo-1-(4-sulfophenyl)-4-((4-sulfophenyl)azo)-1H-pyrazole-3-carboxylic acid] |  | highly soluble in water
O=C([O-])c1c(Cl)c(Cl)c(Cl)c(Cl)c1-c1c2c(Br)cc(=O)c(Br)c-2oc2c(Br)c(O)cc(Br)c12.O=C([O-])c1c(Cl)c(Cl)c(Cl)c(Cl)c1-c1c2c(Br)cc(=O)c(Br)c-2oc2c(Br)c(O)cc(Br)c12.[Na+].[Na+] [Acid Red 92, disodium salt of 3,4,5,6-tetrachloro-2-(1,4,5,8-tetrabromo-6-hydroxy-3-oxoxanthen-9-yl)benzoic acid] | greater than 10 g/L | 
